Data taken from ChEMBL document CHEMBL5375995, “Discovery and Mechanistic Study of Novel Mycobacterium tuberculosis ClpP1P2 Inhibitors” (J Med Chem, 2023).
≈ marks a conversion by molar mass, not a printed value. Calls of active or inactive are those of the source. The rule behind the calls is not given here.

Tests used:
[1] = system: Mycolicibacterium smegmatis; assay: Antibacterial activity against wild-type Mycobacterium smegmatis mc2 155 assessed as bacterial growth inhibition incubated for 2 days by Alamar blue staining based assay; assay type: functional; conditions: mc2 155, 48 h, time 2 day
Pseudomonas aeruginosa = assay: Antibacterial activity against Pseudomonas aeruginosa assessed as bacterial growth inhibition incubated for 24 hrs by broth microdilution method; assay type: functional
[2] = Inhibition of full-length Staphylococcus aureus ClpP complex/Escherichia coli ClpX delta N mutant (62 to 425 residues) expressed in Escherichia coli BL21(DE3) using FITC-casein as substrate measured for 1 hr in presence of Bz-LL/ATP by fluorescence based assay
[3] = molecular target: ClpP1P2 (Mycobacterium tuberculosis (strain ATCC 25618 / H37Rv)) (UniProt P9WPC5+P9WPC3); assay: Inhibition of N-terminal His6-SUMO-tagged Mtb ClpP1 (7 to 200 residues)/ClpP2 (13 to 214 residues) complex expressed in Escherichia coli BL21(DE3) using Z-Gly-Gly-Leu-AMC as substrate at 10 uM incubated for 40 mins in presence of Bz-LL by fluorescence based assay
Escherichia coli = assay: Antibacterial activity against Escherichia coli assessed as bacterial growth inhibition incubated for 24 hrs by broth microdilution method; assay type: functional
ClpP1P2 [4] = molecular target: T1, ClpP1P2 (Mycobacterium tuberculosis (strain ATCC 25618 / H37Rv), UniProt P9WPC3+P9WPC5); assay: Inhibition of N-terminal His6-SUMO-tagged Mtb ClpP1 (7 to 200 residues)/ClpP2 (13 to 214 residues) complex expressed in Escherichia coli BL21(DE3) using Z-Gly-Gly-Leu-AMC as substrate measured for 60 mins in presence of Bz-LL by fluorescence based assay
T1 sequence (P9WPC5 whole entry, the tested form may be a part): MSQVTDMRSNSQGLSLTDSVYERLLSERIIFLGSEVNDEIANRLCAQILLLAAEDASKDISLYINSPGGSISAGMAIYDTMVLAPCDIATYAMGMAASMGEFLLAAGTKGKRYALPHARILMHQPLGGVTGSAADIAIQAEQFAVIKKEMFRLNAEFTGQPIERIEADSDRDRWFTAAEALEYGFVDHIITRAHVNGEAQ
T1 sequence (P9WPC3 whole entry, the tested form may be a part): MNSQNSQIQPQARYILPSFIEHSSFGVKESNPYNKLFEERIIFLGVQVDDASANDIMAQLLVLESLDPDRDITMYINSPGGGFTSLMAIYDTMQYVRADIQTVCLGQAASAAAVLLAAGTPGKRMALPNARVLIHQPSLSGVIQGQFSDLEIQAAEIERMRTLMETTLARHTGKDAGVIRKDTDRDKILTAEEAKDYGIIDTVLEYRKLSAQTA

[5] = Selectivity index, ratio of IC50 for full-length human ClpP complex ([…]) expressed in Escherichia coli BL21(DE3) using FITC-casein as substrate to IC50 for N-terminal His6-SUMO-tagged Mtb ClpP1 (7 to 200 residues)/ClpP2 (13 to 214 residues) complex expressed in Escherichia coli BL21(DE3)
[6] = Inhibition of N-terminal His6-SUMO-tagged Mycobacterium smegmatis ClpP1 (3 to 200 residues)/P2 (17 to 218 residues) expressed in Escherichia coli BL21(DE3) using Z-Gly-Gly-Leu-AM as substrate measured for 60 mins in presence of Bz-LL by fluorescence based assay; parameters: species or system Mycolicibacterium smegmatis
[7] = Selectivity index, ratio of IC50 for full-length Pseudomonas aeruginosa ClpP1 expressed in Escherichia coli BL21(DE3) using Suc-LY-AMC as substrate to IC50 for N-terminal His6-SUMO-tagged Mtb ClpP1 (7 to 200 residues)/ClpP2 (13 to 214 residues) complex expressed in Escherichia coli BL21(DE3)
[8] = Selectivity index, ratio of IC50 for full-length Mtb H37Rv ClpP complex expressed in Escherichia coli BL21(DE3) using FITC-casein as substrate to IC50 for N-terminal His6-SUMO-tagged Mtb ClpP1 (7 to 200 residues)/ClpP2 (13 to 214 residues) complex expressed in Escherichia coli BL21(DE3)
[9] = Selectivity index, ratio of IC50 for full-length human ClpP complex ([…]) expressed in Escherichia coli BL21(DE3) using Ac-WLA-AMC as substrate to IC50 for N-terminal His6-SUMO-tagged Mtb ClpP1 (7 to 200 residues)/ClpP2 (13 to 214 residues) complex expressed in Escherichia coli BL21(DE3)
[10] = system: Mycobacterium tuberculosis; assay: Antibacterial activity against Mycobacterium tuberculosis H37Rv assessed as bacterial growth inhibition incubated for 24 hrs by broth microdilution method; assay type: functional
[11] = molecular target: ATP-dependent Clp protease ATP-binding subunit ClpC1 (Mycobacterium tuberculosis) (UniProt P9WPC9); assay: Inhibition of N-terminal His6-tagged full-length Mtb ClpC1 ATPase activity expressed in Escherichia coli BL21(DE3) at 100 uM in presence of PK/LDH/ATP/NADH by spectrophotometry
Chain of ATP-dependent Clp protease ATP-binding subunit ClpC1 (Mycobacterium tuberculosis) (P9WPC9 whole entry, the tested form may be a part): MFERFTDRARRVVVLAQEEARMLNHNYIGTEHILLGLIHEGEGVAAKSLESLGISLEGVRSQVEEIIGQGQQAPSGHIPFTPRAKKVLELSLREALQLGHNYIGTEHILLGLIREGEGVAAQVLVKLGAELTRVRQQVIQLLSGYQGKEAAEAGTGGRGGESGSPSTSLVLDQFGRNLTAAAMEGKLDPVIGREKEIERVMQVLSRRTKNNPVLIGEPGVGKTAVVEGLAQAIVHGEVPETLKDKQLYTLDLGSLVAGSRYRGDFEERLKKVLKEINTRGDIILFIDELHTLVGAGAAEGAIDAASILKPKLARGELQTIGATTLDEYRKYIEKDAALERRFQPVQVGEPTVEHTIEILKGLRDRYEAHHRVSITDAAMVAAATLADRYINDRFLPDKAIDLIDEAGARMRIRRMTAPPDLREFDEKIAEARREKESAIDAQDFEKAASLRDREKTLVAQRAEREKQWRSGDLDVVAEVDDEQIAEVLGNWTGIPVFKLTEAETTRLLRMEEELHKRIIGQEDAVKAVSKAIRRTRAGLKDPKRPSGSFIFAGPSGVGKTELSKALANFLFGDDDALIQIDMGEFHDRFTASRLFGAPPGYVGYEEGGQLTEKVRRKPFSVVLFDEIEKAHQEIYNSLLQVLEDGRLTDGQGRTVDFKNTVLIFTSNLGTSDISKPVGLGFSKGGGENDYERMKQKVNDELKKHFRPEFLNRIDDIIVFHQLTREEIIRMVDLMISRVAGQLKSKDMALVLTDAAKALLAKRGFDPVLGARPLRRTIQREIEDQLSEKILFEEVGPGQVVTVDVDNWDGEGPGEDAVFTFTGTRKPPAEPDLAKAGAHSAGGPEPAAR

[12] = Inhibition of full-length Escherichia coli ClpP complex/Escherichia coli ClpX delta N mutant (62 to 425 residues) expressed in Escherichia coli BL21(DE3) using FITC-casein as substrate measured for 1 hr in presence of Bz-LL/ATP by fluorescence based assay
[13] = Inhibition of full-length Mtb H37Rv ClpP complex expressed in Escherichia coli BL21(DE3) using FITC-casein as substrate measured for 1 hr in presence of Bz-LL/ATP by fluorescence based assay; parameters: species or system Mycobacterium tuberculosis
[14] = Inhibition of full-length Pseudomonas aeruginosa ClpP1 expressed in Escherichia coli BL21(DE3) using Suc-LY-AMC as substrate measured for 60 mins in presence of Bz-LL by fluorescence based assay
[15] = Inhibition of full-length human ClpP complex ([…]) expressed in Escherichia coli BL21(DE3) using Ac-WLA-AMC as substrate measured for 60 mins in presence of Bz-LL by fluorescence based assay
[16] = system: Mycolicibacterium smegmatis; assay: Antibacterial activity against Mycobacterium smegmatis mc2 155 harboring ClpC1 knockout assessed as bacterial growth inhibition incubated for 2 days by Alamar blue staining based assay; assay type: functional; conditions: mc2 155, 48 h, time 2 day
[17] = system: Mycobacterium tuberculosis; assay: Antibacterial activity against Mycobacterium tuberculosis H37Ra assessed as bacterial growth inhibition incubated for 24 hrs by broth microdilution method; assay type: functional
[18] = Selectivity index, ratio of IC50 for Mtb H37Rv ClpP complex using Z-Gly-Gly-Leu-AMC as substrate to IC50 for N-terminal His6-SUMO-tagged Mtb ClpP1 (7 to 200 residues)/ClpP2 (13 to 214 residues) complex expressed in Escherichia coli BL21(DE3)
[19] = Inhibition of full-length Escherichia coli ClpP complex expressed in Escherichia coli BL21(DE3) using Suc-LY-AMC as substrate incubated for 60 mins in presence of Bz-LL by fluorescence based assay
[20] = molecular target: ATP-dependent Clp protease ATP-binding subunit ClpC1 (Mycobacterium tuberculosis) (UniProt P9WPC9); assay: Inhibition of N-terminal His6-tagged full-length Mtb ClpC1 creatine kinase activity expressed in Escherichia coli BL21(DE3) using creatine phosphate as substrate at 100 uM preincubated for 10 mins followed by substrate addition measured after 10 mins in presence of ADP by Kinase-Glo assay; conditions: time 20.0 min
[21] = Inhibition of full-length human ClpP complex ([…]) expressed in Escherichia coli BL21(DE3) using FITC-casein as substrate measured for 1 hr in presence of Bz-LL/ONC212/ATP by fluorescence based assay
ClpP1P2 [22] = molecular target: T1, ClpP1P2; assay: Binding affinity to N-terminal His6-SUMO-tagged Mtb ClpP1 (7 to 200 residues)/ClpP2 (13 to 214 residues) complex expressed in Escherichia coli BL21(DE3) assessed as increase in thermal stability measured at 25 to 110 degreeC in presence of Bz-LL by DSF assay
[23] = system: Mycolicibacterium smegmatis; assay: Antibacterial activity against Mycobacterium smegmatis mc2 155 harboring ClpX knockout assessed as bacterial growth inhibition incubated for 2 days by Alamar blue staining based assay; assay type: functional; conditions: mc2 155, 48 h, time 2 day

Q: Which MIC [1] does the source give for `COc1cc2c(Oc3ccc4[nH]c(C)cc4c3F)ncnc2cc1OCCCN1CCCC1` [CEDIRANIB] here?
A: 113 µM (≈ 50.9 µg/mL)

Q: What about the MIC (Pseudomonas aeruginosa) of the same molecule?
A: > 226 µM

Q: And the IC50 [2]?
A: 234 µM

Q: What about the inhibition [3] of the same molecule?
A: Active

Q: And the MIC (Escherichia coli)?
A: > 226 µM

Q: And the IC50 (ClpP1P2 [4])?
A: 2.8 µM

Q: What about the Ratio IC50 [5] of the same molecule?
A: 11.3

Q: What about the IC50 [6] of the same molecule?
A: 6.2 µM

Q: And the Ratio IC50 [7]?
A: > 170

Q: And the Ratio IC50 [8]?
A: 14.8

Q: What about the Ratio IC50 [9] of the same molecule?
A: 13.3

Q: What about the MIC [10] of the same molecule?
A: 28.2 µM (≈ 12.7 µg/mL)

Q: What about the inhibition [11] of the same molecule?
A: inactive

Q: And the IC50 [12]?
A: 358 µM

Q: What about the IC50 [13] of the same molecule?
A: 24.2 µM

Q: What about the IC50 [14] of the same molecule?
A: > 500 µM

Q: And the IC50 [15]?
A: 37.5 µM

Q: What about the MIC [16] of the same molecule?
A: 56.4 µg/mL (≈ 125 µM)

Q: And the MIC [17]?
A: 14.1 µM (≈ 6.35 µg/mL)

Q: And the Ratio IC50 [18]?
A: 1

Q: What about the IC50 [19] of the same molecule?
A: > 500 µM

Q: What about the inhibition [20] of the same molecule?
A: inactive

Q: What about the IC50 [21] of the same molecule?
A: 273 µM

Q: And the EC50 (ClpP1P2 [22])?
A: 29 µM

Q: What about the MIC [23] of the same molecule?
A: 56.4 µg/mL (≈ 125 µM)
